Assay results as given in US20180325914A1, “INCREASING STORAGE OF VITAMIN A, VITAMIN D AND/OR LIPIDS” (Salk Institute for Biological Studies, priority 2014, published 2018).

System: primary HSCs
Conditions: mRNA-Seq expression, Day_6_JQ1

Cc1sc2c(c1C)C(c1ccc(Cl)cc1)=N[C@@H](CC(=O)OC(C)(C)C)c1nnc(C)n1-2 [JQ1, (S)-tert-butyl 2-(4-(4-chlorophenyl)-2,3,9-trimethyl-6H-thieno[3,2-f][1,2,4]triazolo[4,3-a][1,4]diazepin-6-yl)acetate]
Nav2 value_2: 5.311
Ndn value_2: 33.2623
Nnmt value_2: 30.0607
Npr2 value_2: 10.1828
Nradd value_2: 15.4656
Nuak1 value_2: 12.6565
Nudt18 value_2: 6.501
Ogdhl value_2: 4.726
Paqr8 value_2: 7.424
Pcolce value_2: 103.689
Pde4dip value_2: 14.9114
Pdia5 value_2: 20.7466
Pgcp value_2: 20.5624
Pgm2 value_2: 36.9612
Pkig value_2: 41.8645
Pla2g4a value_2: 14.8571
Plod3 value_2: 47.8896
Ppp2r5b value_2: 15.5804
Praf2 value_2: 50.8557
Prnp value_2: 204.182
Psd3 value_2: 5.579
Ptger3 value_2: 6.064
Ptgfrn value_2: 24.2749
Ptk2b value_2: 17.1497
Qsox1 value_2: 91.7197
Rasl11a value_2: 68.0496
Rasl11b value_2: 27.3606
Reep5 value_2: 42.7167
Rftn1 value_2: 20.5933
Rhoq value_2: 36.4737
Rian value_2: 23.3478
Samd4 value_2: 15.2321
Scd1 value_2: 23.3211
Sec23a value_2: 28.8101
Sepw1 value_2: 95.2318
Serping1 value_2: 119.681
Setbp1 value_2: 2.434
Shroom3 value_2: 5.757
Slc7a6 value_2: 20.2814
Slc24a3 value_2: 3.111
Snurf value_2: 6.708
Steap2 value_2: 17.4478
Thbs2 value_2: 44.7287
Tmem9 value_2: 20.5522
Tmem176a value_2: 136.733
Tpm2 value_2: 114.662
Ttc19 value_2: 10.9985
Ufsp2 value_2: 21.3133
Ypel5 value_2: 34.2738
Zfp651 value_2: 5.6272
Zmat3 value_2: 18.2014
Zranb3 value_2: 2.608
value_2, gene 2210013O21Rik: 38.055
value_2, gene 2610018G03Rik: 7.783
value_2, gene 2700094K13Rik: 52.964
value_2, gene 2810055F11Rik: 9.372
value_2, gene AI464131: 6.393
value_2, gene Acadsb: 26.5141
value_2, gene Aes: 188.935
value_2, gene Agl: 8.667
value_2, gene Ankrd44: 7.9209
value_2, gene Aplp1: 20.7172
value_2, gene Arhgap1: 99.931
value_2, gene Aurka: 17.2799
value_2, gene Bace1: 40.101
value_2, gene Bmpr1a: 33.5187
value_2, gene Bsg: 560.767
value_2, gene Cacna2d1: 7.615
value_2, gene Calm3: 185.514
value_2, gene Ccdc3: 44.0572
value_2, gene Ccdc102a: 12.129
value_2, gene Ccdc122: 5.501
value_2, gene Ccne1: 13.7889
value_2, gene Cdc42bpg: 9.647
value_2, gene Cenpa: 18.2009
value_2, gene Cfh: 33.8709
value_2, gene Clip3: 25.4738
value_2, gene Cpeb2: 7.639
value_2, gene Cpxm1: 119.242
value_2, gene Ctsf: 19.6316
value_2, gene Cxxc5: 28.6295
value_2, gene Dhcr24: 17.3636
value_2, gene Dynlt3: 74.0523
value_2, gene Efna4: 6.053
value_2, gene Ephb2: 12.3025
value_2, gene Fam26e: 11.6803
value_2, gene Fam168a: 23.5828
value_2, gene Fat1: 68.0733
value_2, gene Fkbp9: 153.585
value_2, gene Fstl1: 883.839
value_2, gene Gadd45g: 151.82
value_2, gene Ggcx: 22.6363
value_2, gene Gjc2: 5.148
value_2, gene Gpam: 13.2457
value_2, gene Gpnmb: 100.919
value_2, gene Gpr153: 15.34
value_2, gene Grb10: 117.152
value_2, gene Gstm4: 11.4343
value_2, gene Gtse1: 16.4741
value_2, gene Gucylb3: 35.4413
value_2, gene Gxylt2: 8.031
value_2, gene Hic1: 40.7263
value_2, gene Hspb6: 15.1361
value_2, gene Htra1: 128.76
value_2, gene Irs2: 11.6492
value_2, gene Itgb5: 206.046
